Reference: patent US9034812B2, “Compositions and methods for treating biofilms” (Ohio University, priority 2011, dated 2015)

Assays:
[1] = system: D. vulgaris (ATCC 7757) SRB biofilm; test: Prevention of SRB biofilm establishment on carbon steel coupons (Example 1): sessile cell count and SEM; format: cell-based, Desulfovibrio vulgaris; conditions: alone; for Sessile SRB cells on coupon surface (SEM), biofilm prevention: 7-day coupons
Experimental: D. vulgaris (ATCC 7757), a laboratory SRB strain, was cultured in ATCC 1249 medium. Quarter strength medium with only four key ingredients, i.e., MgSO4, sodium lactate, Fe(NH4)2(SO4)2 and yeast extract at concentrations ¼ of those in the full ATCC 1249 medium was also used to simulate a less nutritious environment. […] SRB culture media were sterilized in an autoclave and then deoxygenated using N2 (filter sterilized) sparging. SRB cells were enumerated using an SRB test kit (Sani-Check® Product #100, Biosan Laboratories, Warren, Mich., USA). […] Below this cell count, it is hard to catch an individual cell under the light microscope. The Most Probable Number (MPN) enumeration method is a standard method to estimate very low cell counts. MPN succeeds by growing the cells first and correlating the cell counts with the appearance of black color (due to FeS produced by SRB). […] The SRB test kit used in this example is equivalent to an MPN method using a solid medium instead of a liquid medium.
Anaerobic vials used in this example were 125 ml (Catalog No. 223748, Wheaton Industries Inc., 143 Millville, N.J., USA), each filled with 100 ml of culture medium. A glovebox filled with filter-sterilized N2 provided an anaerobic environment. To mitigate any possible oxygen leaks, 100 ppm L-cysteine (Fisher Scientific, Pittsburgh, Pa., USA), an oxygen scavenger, was added to the culture media. Thin disk shaped C1018 carbon steel coupons with a top disk surface area of 1.12 cm^2 were polished with 200, 400, and 600 grit abrasive papers progressively. Only the top surface of each coupon was exposed to the culture medium. The rest of the surfaces were coated with inert Teflon. After polishing, the coupons were weighed. The coupons were cleaned using isopropanol and then dried under UV light for 15 minutes.
Three duplicate coupons and 1 ml of a 3-day old SRB seed culture were added to each anaerobic vial. The initial SRB cell concentration in each vial immediately after inoculation was approximately 10^6 cells/ml. After adding treatment chemical(s) following inoculation, the vials were sealed and then incubated at 37° C. After 7 days of incubation, the biofilm on a coupon surface was observed under SEM. The procedure to prepare a coupon for SEM observation of a biofilm was described by Wen et al., Inter. […] Au coating of the biofilm covered coupon was necessary for SEM because the biofilm was not conductive. An SEM image was taken for the spot with most sessile cells after screening three duplicate coupons. A special control coupon was inserted in a vial containing the culture medium without biocide treatment and incubated without inoculation. This abiotic control would indicate yellow rust if an oxygen leak occurred. Its surface was also scanned for sessile cells under SEM for possible microbial contamination. Care was also taken to identify sessile cells that looked different from D. vulgaris during biofilm observation under SEM, which would indicate microbial contamination.
To obtain the average sessile cell density on a coupon surface, the sessile cells were first scraped off from the surface of a duplicate coupon onto a brush-like dipstick of the SRB test kit handled with sterile tweezers. The dipstick was wetted with deoxygenated water before scraping. Most of the sessile cells were collected by the dipstick. […]

[2] = system: D. vulgaris (ATCC 7757) SRB biofilm; test: Prevention of SRB biofilm establishment (Example 2): sessile cell count (MPN) and SEM; format: cell-based, Desulfovibrio vulgaris; conditions: 100 ppm, alone, 7 days; for Sessile SRB cells on coupon (SEM), biofilm prevention: full-strength medium
Experimental: D. vulgaris (ATCC 7757), a common SRB strain, was used in this example. Before inoculation, the culture media were autoclave sterilized and then sparged with filter-sterilized nitrogen for at least 45 minutes to remove dissolved oxygen. SRB growth was carried out in 125 ml anaerobic vials (Catalog No. 223748, Wheaton Industries Inc., Millville, N.J., USA) filled with 100 ml culture medium. In the test, 1 ml SRB seed culture was used to inoculate each anaerobic vial to achieve an SRB concentration of 10^6 cells/ml right after inoculation. The full-strength ATCC 1249 medium with 200 ppm Fe^2+ was used to grow SRB biofilm on coupon surfaces.
It was neutralized to pH 7.0 by adding a sodium hydroxide solution. Coin shaped C1018 carbon steel coupons with a top exposed surface area of 1.12 cm^2 were used as substratum for SRB growth. The side and bottom surfaces were coated with inert Teflon. The top surface was polished sequentially by 200, 400, and 600 grit abrasive papers. Nitrogen sparging was used to remove dissolved oxygen in all liquids and to provide an anaerobic environment in a glove box. 100 ppm L-cysteine (Fisher Scientific, Pittsburgh, Pa., USA) was added to the culture media as an oxygen scavenger to mitigate any possible oxygen leak.
One milliliter of SRB seed culture was added at the beginning of the tests and the vials were sealed and incubated at 37° C. without shaking. After 7 days, the coupons were taken out and examined for sessile SRB cells.
(§1) The procedure to prepare a coupon for SEM observation of a biofilm on a coupon surface was described by Wen et al., Inter. Biodeter. Biodegr., (2009), 63:1102-1106. […] Thus, an SEM image was taken after searching for a spot with the most sessile cells. The cells seen in the SEM images should not be used to count the sessile cells because of uneven distribution. Instead, the Most Probable Number (MPN) method was used to enumerate sessile cells. SEM images could be used as qualitative visual confirmation of biofilm removal.
(§2) Viable D. vulgaris cells can be seen as motile cells under a light microscope at 400×. Thus they can be counted using a hemocytometer. However, this method has a detection limit of 5×10^4 cells/ml minimum at 400× magnification. It is a standard practice to enumerate very low cell counts using the semi-quantitative most probable number (MPN) method with a liquid culture medium or a solid medium. The accuracy of MPN is typically 1 log in cell numbers. Thus, it takes at least a 2-log reduction to assure the efficacy of a biocide system. In this example, the sessile cells on a coupon were scraped and collected in a test tube by using the brush-like dipstick that was part of an SRB test kit (Sani-Check® Product #100 from Biosan Laboratories, Warren, Mich., USA). The dipstick was then soaked in 10 ml sterilized distilled water and vortexed for 30 s. Finally, the dipstick was inserted into the test kit's vial containing a solid SRB culture medium. The SRB sessile cell concentration was based on how long it took for the black color (FeS) to appear in the medium around the dipstick. The tests were repeated three separate times. Each time, two coupons were used for sessile SRB cell counting.

[3] = system: mature D. vulgaris (ATCC 7757) SRB biofilm; test: Removal of established SRB biofilm, 1-h and 3-h simulated slug treatment (Example 2); format: cell-based, Desulfovibrio vulgaris; conditions: alone
Experimental: The full-strength ATCC 1249 medium was used to grow SRB biofilms on coupon surfaces first. […] In the anaerobic chamber, the coupons were taken out and rinsed with phosphate buffered saline (PBS) buffer to remove loose planktonic cells. The coupons were then placed into petri dishes containing treatment chemicals in a water solution. Some coupons were treated for 1 h and some for 3 h. This simulated slug treatment with a contact time lasting 1 and 3 h, respectively, as in the situation when a biocide slug flows inside a pipeline. Flow effect was not considered here. Exposing SRB cells on a coupon from the ATCC 1249 medium to a water solution lacking salt ions might cause osmotic shock that could interfere with the biocide efficacy evaluation. Instead of using PBS buffer commonly used in cell cultures, two salts in the original medium, MgSO4 and (NH4)2Fe(SO4)2, were added to the 1 and 3-h treatment solutions at ¼ of their corresponding concentrations in the full-strength ATCC 1249 medium. The treated coupons were then removed and examined for sessile SRB cells. The diluted medium was used here to simulate the residual nutrients retained by the local biofilms when the bulk pipeline or tank fluid is displaced by the biocide solution during a field treatment.
as §1, §2

[4] = system: D. vulgaris (ATCC 7757) SRB biofilm; test: Mitigation of MIC pitting and weight loss of C1018 carbon steel coupons (Example 1); parameters: species or system Desulfovibrio vulgaris; conditions: 50 ppm, alone; 7 days
Description: The coupons for SEM used in above in “Prevention of Biofilm Establishment” were reused to observe the MIC pitting after their biofilms and Au coating were removed using the Clark's solution. Coupon weight loss data were obtained from another duplicate coupon in each vial. The coupon surface was cleaned to remove biofilms and mineral deposits using the Clark's solution before weighing.

For CC(C)C[C@@H](N)C(=O)O [D-leucine], the Sessile cell count ([1]; 500 ppm, after 7 days, ATCC 1249 medium) was “≧10^5 cells/cm^2”.

In the case of “Tetrakis hydroxymethyl phosphonium sulfate [THPS]”, the “Kill of SRB sessile cells” value [2] is reported as 99.999%, the “Reduction of SRB sessile cells versus untreated control” value [2] is reported as 5 log and the “Sessile SRB cells on coupon (SEM), biofilm prevention” value [2] is reported as “partially effective”. For the same molecule, the “Sessile SRB cells on coupon surface (SEM), biofilm prevention” value ([1]; 100 ppm) was “had sessile SRB cells on their surfaces”, the “Reduction of sessile SRB concentration versus control” value ([3]; 50 ppm, 1 h) was 2 log and the “Sessile SRB cells on coupon (SEM), 1-h shock treatment” value ([3]; 50 ppm, 1 h) was “numerous sessile SRB cells remained”. For the same molecule, the “Sessile cell count for 1-h treatment” value ([3]; 50 ppm, 1 h) was “≧10^4 cells/cm^2”, the “Sessile cell count for 3-h treatment” value ([3]; 50 ppm) was “≧10^3 cells/cm^2” and the “Normalized coupon weight loss (average)” value [4] was 0.65 mg/cm^2.

In the case of N[C@H](Cc1ccc(O)cc1)C(=O)O [D-tyrosine], the “Reduction of SRB sessile cells versus untreated control” value [2] is reported as 1 log, the “Sessile SRB cells on coupon (SEM), biofilm prevention” value [2] is reported as “completely ineffective” and the “Sessile SRB cells on coupon surface (SEM), biofilm prevention” value ([1]; 10 ppm) is reported as “not effective in preventing SRB biofilm formation”. For the same molecule, the “Sessile SRB cells on coupon (SEM), 1-h shock treatment” value ([3]; 100 ppm, 1 h) was “left many sessile cells on the coupon surface” and the “Sessile cell count for 3-h treatment” value ([3]; 100 ppm) was “≧10^5 cells/cm^2”.

CSCC[C@@H](N)C(=O)O [D-methionine] was tested, and the “Sessile SRB cells on coupon surface (SEM), biofilm prevention” value ([1]; 500 ppm) was “had sessile SRB cells on their surfaces”.

With N[C@H](Cc1c[nH]c2ccccc12)C(=O)O [D-tryptophan] the “Sessile SRB cells on coupon surface (SEM), biofilm prevention” value ([1]; 100 ppm) was “ineffective”.
